Measured values reported in US4853407A, “Aminoethylcysteine derivatives” (Sanraku Incorporated, priority 1987, dated 1989).

How the values were obtained:
dipeptidase [1] = target: T1, dipeptidase (Rattus norvegicus, UniProt P31430); test: In vitro test on dipeptidase-inhibiting activity (antibiotic PS-5 as substrate, absorbance at 301 nm); assay type: biochemical; settings: partially purified dipeptidase from rat kidney; substrate antibiotic PS-5, pH 8.0, 37° C., 5 minutes; read-out: ID50 (the source's name)
T1 construct: to obtain a partially purified sample of dipeptidase; from tissue; host or cells: rat kidney, microsome fraction, trypsin-treated, Triton X-100 solubilised, partially purified
Experimental: Rats were sacrificed by decapitation to bleed, and about 12 g of fresh kidneys were collected. And a microsome fraction was obtained by subcellular fractionating method according to fractional centrifugation of Hogboom (Methods in Enzymology, vol. 1, pages 16-19, Academic Press, New York, 1955). This microsome fraction was treated with 400 μg/ml of trypsin at 0° C. for 16 hours, and then subjected to fractional ultracentrifugation at 10^5 G at 0° C. for 60 minutes.
The resultant precipitate was solubilized by 20 ml of Tris-HCl buffer (20 mM, pH 7.6) containing a surfactant (0.4% Triton® X-100), and subjected to fractional ultracentrifugation at 10^5 G at 0° C. for 60 minutes. […]
The enzyme obtained above ([…]) was preincubated together with 30 μl of an inhibiting agent solution in a cuvette at 37° C. for 5 minutes. […] The reaction was carried out within a cuvette of HITACHI spectrophotometer equipped with a constant temperature device (37° C.), and decreases of absorbance at a wavelength of 301 nm for 5 minutes were determined by a recorder.
By the values obtained above and values from control containing no inhibiting agent, the percent inhibition and ID50 at a predetermined inhibition concentration were determined.

dipeptidase [2] = test: In vivo test on dipeptidase-inhibiting activity (recovery of co-administered antibiotic 88617 in urine); design: species or system ddY mice; settings: 6 hours, average of five mice
Experimental: (§1) Five weeks aged ddY mice were grouped five mice for one group, and aqueous solutions containing 80 or 250 mg/ml concentration of the dipeptidase-inhibiting agent of this invention (adjusted with 1N NaOH to pH 7.5) were intravenously administered to the mice. A control group was administered with a same amount of pure water. 3 to 5 minutes after the administration, 0.25 ml of an antibiotic 88617 (M/100 PBS, pH 7.0 solutions) at 5 or 20 mg/kg-mouse were subcutaneously administered to the mice. Six hours after the administration of the antibiotic 88617, all the urines of the mice were collected and the concentrations of the antibiotic 88617 in all the collected urines were measured by disc-agar diffusion method in which Comamonas terrigena was used as test bacteria, and average values of five mice were determined.

[3] = as above; design: species or system ddY mice; settings: mouse, sc; control: antibiotic 88617 alone, 20 mg/kg subcutaneous; urine collected 6 hours; average of five mice; read-out: Recovery ratio of antibiotic 88617 in urine
Experimental: as §1

T1 sequence (P31430 17-410): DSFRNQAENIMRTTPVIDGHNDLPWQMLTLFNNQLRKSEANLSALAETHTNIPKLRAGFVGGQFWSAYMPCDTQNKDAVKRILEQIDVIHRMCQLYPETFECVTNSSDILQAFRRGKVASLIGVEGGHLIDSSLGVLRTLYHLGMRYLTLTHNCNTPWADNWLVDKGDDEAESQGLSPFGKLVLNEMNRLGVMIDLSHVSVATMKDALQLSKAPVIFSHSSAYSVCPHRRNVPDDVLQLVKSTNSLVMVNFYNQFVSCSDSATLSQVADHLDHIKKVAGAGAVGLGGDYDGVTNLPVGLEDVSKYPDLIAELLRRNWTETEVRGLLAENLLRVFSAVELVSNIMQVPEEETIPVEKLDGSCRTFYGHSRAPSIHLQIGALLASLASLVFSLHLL

| IC50 (dipeptidase [1]) | dose excreted at 6 h [3] | SMILES | Recovery ratio of antibiotic 88617 in urine when dipeptidase-inhibiting agent was co-administered (dipeptidase [2]; inhibitor 50 mg/kg intravenous in combination with antibiotic 88617 20 mg/kg subcutaneous) | Recovery ratio of antibiotic 88617 in urine when dipeptidase-inhibiting agent was co-administered (dipeptidase [2]; inhibitor 250 mg/kg intravenous in combination with antibiotic 88617 20 mg/kg subcutaneous) |
| --- | --- | --- | --- | --- |
| 210 µM |  | O=C(NCCSC[C@H](NC(=O)c1ccccc1)C(=O)O)c1ccccc1 [Compound No. 1, N-benzoyl-S-(2-benzoylaminoethyl)-L-cysteine] | 38.0% | 57.2% |
|  | 27.5% | CN=C(CSC1=C(C(=O)O)N2C(=O)C(C(C)F)C2C1)N(C)C (centres unmarked) [Antibiotic 88617, reference compound] |  |  |
| 480 µM |  | O=C(O)[C@H](CSCCN1C(=O)c2ccccc2C1=O)N1C(=O)c2ccccc2C1=O [Compound No. 2, S-(2-phthalimidethyl)-N-phthaloyl-L-cysteine] |  |  |
